The results in this text go back to patent publication US20260048028A1, “Methods of Use for Disulfiram and Metabolites Thereof” (PS Therapy, Inc., priority 2022, published 2026).

One test relates to gasdermin D (GSDMD). Briefly: Alkali-burn injury in mice, RT-PCR expression of GSDMD in eyes. In kind it is in vivo. As to conditions: RT-PCR of enucleated eyes after 7 days of topical 300 μM NaDDC three times daily. On the procedure: (§1) C57BL/6 mice were divided into three groups, control group 1 (n=6), group 2 (n=6) and group 3 (n=3). Each group consisted of mice with their left eye (“LE”) left undisturbed as a control, while the right eye (“RE”) of all mice in each group was subjected to alkali burn. Prior to inducing alkali burn, mice were anesthetized using an injection of an anesthetic cocktail containing ketamine (20 mg/ml) and xylazine (4 mg/ml) at a dose of approximately […] per 25 g mouse. Topical analgesia was provided using proparacaine hydrochloride (0.5%) on the corneal surface. A round filter paper piece (˜2 mm in diameter) was soaked in a 0.5 M NaOH solution. […]
(§2) On the 7th day following the alkali burn, corneal images were captured using slit microscopy to monitor changes in corneal opacity and neovascularization. The degree of corneal injury was evaluated and scored in a blinded manner by trained observers. Corneal opacity was evaluated using a grading scale ranging from 0 to 4, where 0 represented a completely clear cornea, 1 indicated slight haziness with the iris and pupil easily visible, 2 denoted slight opacity with detectable iris and pupil, 3 indicated significant opacity with difficulty in detecting pupils, and 4 represented complete opacity with no view of the pupil. […]

The test system of test [1] is tumor necrosis factor alpha (TNFα). The test is described as follows: Alkali-burn injury in mice, RT-PCR expression of TNFα in eyes. In kind it is in vivo. As to conditions: RT-PCR of enucleated eyes after 7 days of topical 300 μM NaDDC three times daily. On the procedure:
as §1, §2

Test [2] concerns transforming growth factor beta 1 (TGFβ1). The test is described as follows: Alkali-burn injury in mice, RT-PCR expression of TGFβ1 in eyes. In kind it is in vivo. As to conditions: RT-PCR of enucleated eyes after 7 days of topical 300 μM NaDDC three times daily. The procedure:
as §1, §2

Test [3] has as its system intercellular adhesion molecule 1 (ICAM1). Briefly: Alkali-burn injury in mice, RT-PCR expression of ICAM1 in eyes. In kind it is in vivo. As to conditions: RT-PCR of enucleated eyes after 7 days of topical 300 μM NaDDC three times daily. On the procedure: as §1, §2
In another test the test system is IL-6 mRNA. Briefly: IL-6 mRNA levels in HCE cells under hyperosmolarity. In kind it is cell-based, human. Particulars: 400 milliosmoles, 6 hours post hyperosmolarity induction, −control 290 milliosmoles. The procedure:
Sets of HCE cells were plated in iso-osmotic solutions (290 milliosmoles) […] and assayed for IL-8 and IL-6 mRNA levels as a control. Sets of HC cells were subjected to hyperosmolarity conditions (i.e. placed in a solution having an osmolarity of 400 milliosmoles) either with or without NaDDC. 6 hours post hyperosmolarity induction the cells were assayed for IL-mRNA levels.

In a further test the test system is IL-8 mRNA. The test is described as follows: IL-8 mRNA levels in Aspergillus flavus infected human corneal epithelial cells. In kind it is cell-based. Particulars: HCE cells infected with A. flavus spores. The procedure:
3 sets of human corneal epithelial (“HCE”) cells were plated and assayed for IL-8 mRNA levels as a control. 9 sets of HC cells were then infected with […] of Aspergillus flavus spores. 16 hours post infection the cells were assayed for IL-8 mRNA levels. 3 sets of HCE cells were then administered DSF in DMSO. Several hours following administration of each, IL-8 mRNA levels were assayed.
3 sets of HCE cells were plated and assayed for IL-8 mRNA levels as a control. 9 sets of HC cells were then infected with […] of Aspergillus flavus spores. 16 hours post infection the cells were assayed for IL-mRNA levels. 3 sets of HCE cells were then each administered NaDDC in water. Several hours following administration of each, IL-8 mRNA levels were assayed.

Another test relates to C57BL/6 mice. The test is described as follows: Alkali-burn injury in mice, slit-lamp scoring of corneal opacity and neovascularization. In kind it is in vivo. Particulars: topical three times daily for 7 days (NaDDC 300 μM); for corneal opacity mean score: grading scale 0 to 4, day 7 after alkali burn; for neovascularization score: scale 0 to 3, day 7 after alkali burn. On the procedure: C57BL/6 mice were divided into three groups, control group 1 (n=6), group 2 (n=6) and group 3 (n=3). Each group consisted of mice with their left eye (“LE”) left undisturbed as a control, while the right eye (“RE”) of all mice in each group was subjected to alkali burn. Prior to inducing alkali burn, mice were anesthetized using an injection of an anesthetic cocktail containing ketamine (20 mg/ml) and xylazine (4 mg/ml) at a dose of approximately […] per 25 g mouse. Topical analgesia was provided using proparacaine hydrochloride (0.5%) on the corneal surface. A round filter paper piece (˜2 mm in diameter) was soaked in a 0.5 M NaOH solution. The NaOH-soaked filter paper was gently placed on the central cornea of the RE for precisely 30 seconds, generating an acute alkali burn. Following the removal of the filter paper, the RE was flushed gently with 10 ml of 1×PBS using a 10 ml syringe to ensure thorough removal of residual NaOH. Immediately after the eye flush, the treatment application was initiated for Group 2 and Group 3 mice. Group 1 was left untreated. For Group 2, a drop of 300 μM NaDDC was topically applied to the cornea of the RE. For Group 3, the RE was topically treated with commercially available prednisolone. The treatment was repeated three times daily for a duration of 7 days.
On the 7th day following the alkali burn, corneal images were captured using slit microscopy to monitor changes in corneal opacity and neovascularization. The degree of corneal injury was evaluated and scored in a blinded manner by trained observers. Corneal opacity was evaluated using a grading scale ranging from 0 to 4, where 0 represented a completely clear cornea, 1 indicated slight haziness with the iris and pupil easily visible, 2 denoted slight opacity with detectable iris and pupil, 3 indicated significant opacity with difficulty in detecting pupils, and 4 represented complete opacity with no view of the pupil. The degree of neovascularization was scored on a scale of 0 to 3, with 0 indicating no new vessels, 1 representing new vessels present at the corneal limbus, 2 denoting new vessels extending from the corneal limbus toward the corneal centre, and 3 indicating new vessels spanning the entire corneal centre. At the end of the treatment period, mice from control group 1 and NaDDC treated group 2 were sacrificed and the eyes were enucleated for further analysis, including RT-PCR studies, to investigate the expression levels of tumor necrosis factor alpha (“TNFα”), gasdermin D (“GSDMD”), intercellular adhesion molecule 1 (“ICAM1”) and transforming growth factor beta 1 (“TGFβ1”).

Setting [4] is: NaDDC in water given 16 hours post infection.
Setting [5] is: DSF in DMSO given 16 hours post infection.

Structures are written as SMILES.

Regarding `CCN(CC)C(=S)[S-].[Na+]` [NaDDC, sodium;N,N-diethylcarbamodithioate], in the test on gasdermin D (GSDMD), the “GSDMD expression, % of untreated control group” value was 42%. For the same compound, the “expression level of TNFα, % of untreated control group” value in test [1] stood at 8%. The “TGFβ1 expression, % of untreated control group” value in test [2] is 28%. The “ICAM1 expression, % of untreated control group” value in test [3] was determined as 5%. For the same compound, the “IL-6 mRNA levels (% increase from −control)” value with IL-6 mRNA was 100%. Also, in the test on IL-8 mRNA (setting [4]), the “IL-8 mRNA levels (% increase from uninfected)” value was 10.5% and the “IL-8 mRNA levels (% reduction from water)” value is given as 85.19%. In the test with C57BL/6 mice, the “corneal opacity mean score” value was found to be 0.83 and the neovascularization score is recorded as 0.

With `C[C@]12C=CC(=O)C=C1CC[C@@H]1[C@@H]2[C@@H](O)C[C@@]2(C)[C@H]1CC[C@]2(O)C(=O)CO` [prednisolone, reference compound], in the test with C57BL/6 mice, the “corneal opacity mean score” value is listed as 2.67 and the neovascularization score is 0.

With `CCN(CC)C(=S)SSC(=S)N(CC)CC` [DSF, 1,1′-disulfanediylbis(N,N-diethylmethanethioamide), reference compound], in the test with IL-8 mRNA (setting [5]), the “IL-8 mRNA levels (% change from uninfected)” value was found to be 21.2% and the “IL-8 mRNA levels (% reduction from water)” value amounted to 88.5%.
